Reference: patent publication US7993922B2, “Three-dimensional tissue equivalent using macromass culture” (Reliance Life Sciences Pvt. Ltd., priority 2002, dated 2011)

Assays:
[1] = test system: tissue-equivalent of the present invention (non-dividing fibroblasts); experiment: Camptothecin toxicity on the non-dividing model (tissue equivalent), MTT; format: cell-based, human; conditions: non-dividing cells
Protocol: (§1) As mentioned previously, the tissue equivalent of the present invention could be used as an in vitro model of normal non-dividing cells for safety testing of anti-cancer compounds. To test its usefulness as such a model, dividing monolayers of fibroblasts and the tissue-equivalent of the present invention were incubated with or without (control) camptothecin, an anti-cancer drug known to act on dividing cells and not on non-dividing cells. Both were incubated for the same period of time. Then the metabolic activity was assessed by incubating both groups in MTT, which was quantified by spectrophotometry. […] Leroy et al. Ann. N.Y. Acad. Sci. (2000) 922:1-10. Thus, these are normal cells in a non-dividing state, which could be a model of the normal quiescent cells of the human body, in contrast to the abnormal tumour cells which are rapidly dividing.

[2] = test system: dividing monolayers of fibroblasts; experiment: Camptothecin toxicity on dividing monolayers, MTT; format: cell-based, human; conditions: actively dividing monolayer cells
Protocol: as §1

[3] = test system: neuropathic diabetic foot ulcers; conditions: topical; cited from earlier work

Molecule | Toxicity (metabolic activity, MTT) [1] | Toxicity (metabolic activity, MTT) [2] | Acceleration in the healing of ulcers [3] [%]
CC[C@@]1(O)C(=O)OCc2c1cc1n(c2=O)Cc2cc3ccccc3nc2-1 [camptothecin] | no toxicity | toxic | 
Regranex® Becaplermin: FDA-approved topical platelet-derived growth factor (PDGF) for chronic diabetic neuropathic ulcers |  |  | 15
